Among the data in ChEMBL document CHEMBL3792327, “Discovery and modelling studies of natural ingredients from Gaultheria yunnanensis (FRANCH.) against phosphodiesterase-4” (Eur J Med Chem, 2016) are IC50 and Ratio IC50 values, retold here.

Test [1] deals with 3',5'-cyclic-AMP phosphodiesterase 4D (Homo sapiens, UniProt Q08499). Nature of the test: Inhibition of PDE4D2 catalytic domain (86 to 413 residues) (unknown origin) using [3H]-cAMP as substrate after 15 mins by liquid scintillation counting method.
Test [2] addresses cGMP-specific 3',5'-cyclic phosphodiesterase (Homo sapiens, UniProt O76074). As to the kind of experiment: Inhibition of PDE5A1 catalytic domain (535 to 860 residues) (unknown origin) using [3H]-cGMP as substrate after 15 mins by liquid scintillation counting method.
Test [3] is filed under the species Homo sapiens. As to the kind of experiment: Selectivity index, ratio of IC50 for PDE9A2 catalytic domain (181 to 506 residues) (unknown origin) to IC50 for PDE4D2 catalytic domain (86 to 413 residues) (unknown origin).
The target in test [4] is High affinity cGMP-specific 3',5'-cyclic phosphodiesterase 9A (Homo sapiens, UniProt O76083). Nature of the test: Inhibition of PDE9A2 catalytic domain (181 to 506 residues) (unknown origin) using [3H]-cGMP/[3H]-cAMP as substrate after 15 mins by liquid scintillation counting method.
Test [5] has as its target Dual specificity calcium/calmodulin-dependent 3',5'-cyclic nucleotide phosphodiesterase 1B (Homo sapiens, UniProt Q01064). Nature of the test: Inhibition of PDE1B2 catalytic domain (10 to 487 residues) (unknown origin) using [3H]-cGMP/[3H]-cAMP as substrate after 15 mins by liquid scintillation counting method.
The species named for test [6] is Homo sapiens. Nature of the test: Selectivity index, ratio of IC50 for PDE2A3 catalytic domain (222 to 904 residues) (unknown origin) to IC50 for PDE4D2 catalytic domain (86 to 413 residues) (unknown origin).
The species named for test [7] is Homo sapiens. Nature of the test: Selectivity index, ratio of IC50 for PDE1B2 catalytic domain (10 to 487 residues) (unknown origin) to IC50 for PDE4D2 catalytic domain (86 to 413 residues) (unknown origin).
The target of test [8] is cGMP-dependent 3',5'-cyclic phosphodiesterase (Homo sapiens, UniProt O00408). Nature of the test: Inhibition of PDE2A3 catalytic domain (222 to 904 residues) (unknown origin) using [3H]-cGMP/[3H]-cAMP as substrate after 15 mins by liquid scintillation counting method.
Test [9] has as its target cAMP and cAMP-inhibited cGMP 3',5'-cyclic phosphodiesterase 10A (Homo sapiens, UniProt Q9Y233). Nature of the test: Inhibition of PDE10A2 catalytic domain (448 to 789 residues) (unknown origin) using [3H]-cGMP/[3H]-cAMP as substrate after 15 mins by liquid scintillation counting method.
The species named for test [10] is Homo sapiens. Nature of the test: Selectivity index, ratio of IC50 for PDE5A1 catalytic domain (535 to 860 residues) (unknown origin) to IC50 for PDE4D2 catalytic domain (86 to 413 residues) (unknown origin).
The species entered for test [11] is Homo sapiens. As to the kind of experiment: Selectivity index, ratio of IC50 for PDE10A2 catalytic domain (448 to 789 residues) (unknown origin) to IC50 for PDE4D2 catalytic domain (86 to 413 residues) (unknown origin).

Each structure is given as a SMILES string. Where only a bound is given, the exact number is not on record here.

Sequence of 3',5'-cyclic-AMP phosphodiesterase 4D (Q08499 whole entry, the tested form may be a part): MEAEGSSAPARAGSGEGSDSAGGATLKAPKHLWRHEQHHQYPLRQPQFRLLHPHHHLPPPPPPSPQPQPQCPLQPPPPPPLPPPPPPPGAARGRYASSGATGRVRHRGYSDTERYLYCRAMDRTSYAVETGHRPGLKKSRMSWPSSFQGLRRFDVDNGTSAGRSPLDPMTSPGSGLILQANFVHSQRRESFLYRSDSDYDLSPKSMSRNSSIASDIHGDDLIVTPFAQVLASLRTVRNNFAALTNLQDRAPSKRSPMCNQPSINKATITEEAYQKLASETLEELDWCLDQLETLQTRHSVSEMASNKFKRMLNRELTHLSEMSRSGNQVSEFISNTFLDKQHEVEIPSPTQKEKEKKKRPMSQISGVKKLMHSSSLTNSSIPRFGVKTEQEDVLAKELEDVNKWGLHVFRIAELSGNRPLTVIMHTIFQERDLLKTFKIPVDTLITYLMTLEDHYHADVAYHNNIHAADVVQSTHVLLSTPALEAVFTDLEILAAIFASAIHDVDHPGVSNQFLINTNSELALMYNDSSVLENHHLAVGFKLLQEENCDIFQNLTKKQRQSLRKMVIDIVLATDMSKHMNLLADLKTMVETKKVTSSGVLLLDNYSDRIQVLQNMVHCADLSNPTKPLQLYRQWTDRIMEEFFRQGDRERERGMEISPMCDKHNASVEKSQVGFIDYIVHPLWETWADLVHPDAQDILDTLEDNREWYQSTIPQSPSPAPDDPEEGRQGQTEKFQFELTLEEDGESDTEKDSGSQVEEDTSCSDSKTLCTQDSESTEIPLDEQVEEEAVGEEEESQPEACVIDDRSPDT
Sequence of Dual specificity calcium/calmodulin-dependent 3',5'-cyclic nucleotide phosphodiesterase 1B (Q01064 whole entry, the tested form may be a part): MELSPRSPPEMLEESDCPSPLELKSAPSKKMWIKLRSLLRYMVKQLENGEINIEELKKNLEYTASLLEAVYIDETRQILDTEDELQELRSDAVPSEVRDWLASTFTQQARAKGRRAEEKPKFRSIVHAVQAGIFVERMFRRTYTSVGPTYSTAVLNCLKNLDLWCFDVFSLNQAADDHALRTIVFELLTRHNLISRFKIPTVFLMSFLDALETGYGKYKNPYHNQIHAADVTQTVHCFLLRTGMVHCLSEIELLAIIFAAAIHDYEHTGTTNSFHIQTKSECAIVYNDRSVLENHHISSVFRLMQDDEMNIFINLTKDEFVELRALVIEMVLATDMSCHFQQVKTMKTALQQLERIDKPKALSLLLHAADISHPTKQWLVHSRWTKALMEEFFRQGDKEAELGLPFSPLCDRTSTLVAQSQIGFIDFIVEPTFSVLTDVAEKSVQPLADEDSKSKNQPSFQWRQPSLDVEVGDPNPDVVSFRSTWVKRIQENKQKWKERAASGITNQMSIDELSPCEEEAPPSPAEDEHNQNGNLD
Sequence of High affinity cGMP-specific 3',5'-cyclic phosphodiesterase 9A (O76083 whole entry, the tested form may be a part): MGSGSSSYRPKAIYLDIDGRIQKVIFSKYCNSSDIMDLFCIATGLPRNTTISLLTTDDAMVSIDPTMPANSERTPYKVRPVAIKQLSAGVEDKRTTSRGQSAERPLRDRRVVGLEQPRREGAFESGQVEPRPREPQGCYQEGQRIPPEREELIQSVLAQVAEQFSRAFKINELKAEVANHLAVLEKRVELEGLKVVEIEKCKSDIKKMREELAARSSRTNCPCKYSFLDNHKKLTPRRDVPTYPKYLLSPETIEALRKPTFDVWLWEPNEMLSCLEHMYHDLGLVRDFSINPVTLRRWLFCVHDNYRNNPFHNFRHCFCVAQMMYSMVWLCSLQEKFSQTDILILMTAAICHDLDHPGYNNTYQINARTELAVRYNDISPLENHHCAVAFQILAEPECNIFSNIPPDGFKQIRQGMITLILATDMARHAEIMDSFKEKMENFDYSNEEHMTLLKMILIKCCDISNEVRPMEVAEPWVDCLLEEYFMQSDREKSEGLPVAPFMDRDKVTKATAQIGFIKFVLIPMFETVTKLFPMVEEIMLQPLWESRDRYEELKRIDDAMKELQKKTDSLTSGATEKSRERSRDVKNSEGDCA
Sequence of cAMP and cAMP-inhibited cGMP 3',5'-cyclic phosphodiesterase 10A (Q9Y233 whole entry, the tested form may be a part): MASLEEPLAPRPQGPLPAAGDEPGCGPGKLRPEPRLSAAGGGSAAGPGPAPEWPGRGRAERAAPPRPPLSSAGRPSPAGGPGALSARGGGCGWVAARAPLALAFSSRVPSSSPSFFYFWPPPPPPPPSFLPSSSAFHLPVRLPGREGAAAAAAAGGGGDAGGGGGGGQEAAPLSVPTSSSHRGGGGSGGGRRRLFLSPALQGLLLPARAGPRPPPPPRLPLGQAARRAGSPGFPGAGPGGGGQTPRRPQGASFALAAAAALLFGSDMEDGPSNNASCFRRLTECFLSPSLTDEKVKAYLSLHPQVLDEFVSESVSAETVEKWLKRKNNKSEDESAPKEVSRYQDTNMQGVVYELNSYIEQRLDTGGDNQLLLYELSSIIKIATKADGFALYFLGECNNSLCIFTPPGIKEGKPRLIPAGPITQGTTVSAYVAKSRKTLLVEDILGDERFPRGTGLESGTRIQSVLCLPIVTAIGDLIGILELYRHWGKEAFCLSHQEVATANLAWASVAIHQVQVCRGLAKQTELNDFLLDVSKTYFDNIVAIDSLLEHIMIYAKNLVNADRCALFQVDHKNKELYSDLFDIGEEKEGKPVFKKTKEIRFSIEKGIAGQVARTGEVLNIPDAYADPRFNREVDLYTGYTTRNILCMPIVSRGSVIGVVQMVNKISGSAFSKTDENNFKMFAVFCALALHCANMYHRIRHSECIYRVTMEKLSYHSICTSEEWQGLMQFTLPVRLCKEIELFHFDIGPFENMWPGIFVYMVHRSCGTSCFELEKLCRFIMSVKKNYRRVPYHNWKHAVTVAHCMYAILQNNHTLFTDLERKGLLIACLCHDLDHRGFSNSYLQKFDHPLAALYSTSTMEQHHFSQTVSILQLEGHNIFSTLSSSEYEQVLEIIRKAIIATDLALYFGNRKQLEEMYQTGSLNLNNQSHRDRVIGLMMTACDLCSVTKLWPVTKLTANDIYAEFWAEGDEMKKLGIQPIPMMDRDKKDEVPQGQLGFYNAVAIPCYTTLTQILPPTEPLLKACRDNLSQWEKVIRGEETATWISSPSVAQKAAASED
Sequence of cGMP-dependent 3',5'-cyclic phosphodiesterase (O00408 whole entry, the tested form may be a part): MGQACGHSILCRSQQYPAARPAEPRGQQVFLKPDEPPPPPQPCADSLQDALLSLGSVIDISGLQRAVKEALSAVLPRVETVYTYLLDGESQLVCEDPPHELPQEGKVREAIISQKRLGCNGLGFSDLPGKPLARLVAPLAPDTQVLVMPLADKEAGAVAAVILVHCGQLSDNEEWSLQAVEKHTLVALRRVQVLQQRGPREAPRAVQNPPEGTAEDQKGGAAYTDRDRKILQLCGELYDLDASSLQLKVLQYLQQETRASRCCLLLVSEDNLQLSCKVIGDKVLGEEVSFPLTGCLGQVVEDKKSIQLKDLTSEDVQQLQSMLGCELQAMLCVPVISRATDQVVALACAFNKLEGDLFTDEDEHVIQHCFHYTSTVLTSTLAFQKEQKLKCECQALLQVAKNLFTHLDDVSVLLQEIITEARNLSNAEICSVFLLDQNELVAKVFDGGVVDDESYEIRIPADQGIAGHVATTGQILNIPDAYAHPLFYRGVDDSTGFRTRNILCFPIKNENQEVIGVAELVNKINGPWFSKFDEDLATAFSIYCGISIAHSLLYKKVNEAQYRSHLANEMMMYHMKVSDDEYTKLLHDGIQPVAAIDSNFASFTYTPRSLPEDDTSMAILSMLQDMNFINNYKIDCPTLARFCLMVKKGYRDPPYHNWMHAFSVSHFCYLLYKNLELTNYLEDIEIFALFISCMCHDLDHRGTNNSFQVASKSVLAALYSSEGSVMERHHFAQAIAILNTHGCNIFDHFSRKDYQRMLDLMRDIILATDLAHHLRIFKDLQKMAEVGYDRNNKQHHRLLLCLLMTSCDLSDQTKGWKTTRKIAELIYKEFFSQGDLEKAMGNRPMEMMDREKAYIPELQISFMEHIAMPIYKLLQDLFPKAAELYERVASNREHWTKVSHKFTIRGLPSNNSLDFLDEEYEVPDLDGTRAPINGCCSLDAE

Usually IC50 stands for the point on the concentration scale where inhibition reaches its midpoint. The compound `C=C1CC[C@]2(C(=O)O)CC[C@]3(C)C(=CC[C@@H]4[C@@]5(C)C[C@@H](O)[C@@H](O)C(C)(C)[C@@H]5CC[C@]43C)[C@@H]2[C@H]1C` displayed an IC50 in test [1] of over 20 µM.

Turning to `C=C1CC[C@]2(C(=O)O)CC[C@]3(C)C(=CC[C@@H]4[C@@]5(C)C[C@@H](O)[C@@H](OC(=O)/C=C\c6ccc(O)cc6)C(C)(C)[C@@H]5CC[C@]43C)[C@@H]2[C@H]1C`, the IC50 in test [1] worked out at 0.542 µM.

In [1], `COc1cc(CCCO)cc(OC)c1O` returned an IC50 of over 20 µM.

Compound `COc1cc([C@@H]2Oc3c(OC)cc(CCCO)cc3[C@H]2CO[C@@H]2OC[C@@H](O)[C@H](O)[C@H]2O)ccc1O` came in with an IC50 in test [1] of over 20 µM.

Turning to `COc1cc([C@H]2c3c(cc(OC)c(O)c3OC)C[C@@H](CO)[C@@H]2CO[C@@H]2OC[C@@H](O)[C@H](O)[C@H]2O)cc(OC)c1O` [LYONISIDE], the IC50 in [1] is over 20 µM.

As to `COc1cc([C@H]2c3cc(O)c(OC)cc3C[C@@H](CO)[C@@H]2CO[C@@H]2OC[C@@H](O)[C@H](O)[C@H]2O)ccc1O`, the IC50 in [1] is over 20 µM.

`CC1=CC(=O)CC(C)(C)[C@]1(O)/C=C/[C@@H](C)O`: the IC50 in [1] is over 20 µM.

On to `C=C1CC[C@]2(C(=O)O)CC[C@]3(C)C(=CC[C@@H]4[C@@]5(C)C[C@@H](O)[C@@H](OC(=O)/C=C/c6ccc(O)cc6)C(C)(C)[C@@H]5CC[C@]43C)[C@@H]2[C@H]1C`, for which the IC50 in [2] was 3.81 µM; in test [4] it was 4.83 µM; in [5], 2.63 µM; in test [8], over 50 µM; in test [9], over 20 µM; in test [1], 0.245 µM. The Ratio IC50 was 20 in the test listed under Homo sapiens [3]; over 204 in the test filed under Homo sapiens [6]; 11 in the test listed under Homo sapiens [7]; 16 in the test filed under Homo sapiens [10]; over 82 in the test filed under Homo sapiens [11].

The compound `COc1cc([C@H]2Oc3c(OC)cc(CCCO)cc3[C@@H]2CO[C@@H]2OC[C@@H](O)[C@H](O)[C@H]2O)ccc1O` registered an IC50 in [1] of over 20 µM.
